# Legend:
# Commelina benghalensis = test: Example 4 post-emergence application A-1, B and C-19, COMBE; format: in vivo; conditions: growth stage 13, 21 DAT, g ai/ha: A-1 1, B 50, C-19 30
# Method: (§1) In the examples below, using the method of S. R. Colby (1967) “Calculating synergistic and antagonistic responses of herbicide combinations”, Weeds 15, p. 22ff., the value E, which is expected if the activity of the individual active compounds is only additive, was calculated:
# (§2) [formula] • where • X=percent activity using active herbicide A at an application rate a; • Y=percent activity using active herbicide B (e.g. mesotrione) at an application rate b; • E=expected activity (in %) by A+B at application rates a+b.
# (§3) If the value found experimentally is higher than the value E calculated according to Colby, a synergistic effect is present.
# (§4) Evaluation was carried out using a scale from 0 to 100. 100 means no emergence of the plants, or complete destruction of at least the above-ground parts, and 0 means no damage or normal course of growth. A good herbicidal activity is given at values of at least 70, and very good herbicidal activity is given at values of at least 85.
# (§5) Post-Emergence Application of Herbicide A-1 (A-1), Mesotrione (B) and Pyroxasulfone (C-19)
# (§6) Herbicide A-1 (342 g/l), mesotrione (100 g/l) and pyroxasulfone (500 g/l) were, together with addition of 0.5 v/v % MSO (methylated sed oil) as adjuvant, formulated in water as distribution medium (water volume 200 l/ha) and sprayed with commercial flat fan nozzles.
# Zea mays = test: Example 4 post-emergence application A-1, B and C-19, ZEAMX; format: in vivo; conditions: growth stage 12, 21 DAT, g ai/ha: A-1 2, B 50, C-19 30
# Method: as §1, §2, §3, §4, §5, §6
smiles,measurement,setting,value
"Cn1nc(C(F)(F)F)c(CS(=O)(=O)C2=NOC(C)(C)C2)c1OC(F)F [C-19, pyroxasulfone]",% herbicidal activity,Commelina benghalensis,15%
same,% herbicidal activity,Zea mays,0%
